What was measured:
[1] = test system: Antibody 9 (clone F4P1A3 from EMD Biosciences); assay: Cross reactivity on anti-cortisol antibody microarray, antibody 9; assay type: binding; settings: for Percent cross reactivity, antibody 9: determined by 2000 ng/mL sample; for % cross reactivity, antibody 9: from slopes of ([apparent cortisol] vs [cross reactant])
Excerpt: (§1) The independent variables, these are x1 and x2 in the model are the various concentrations levels, where x1 is the concentration level of cortisol and x2 is the concentration level of the cross-reactant (in this case either 6AMP or prednisolone). The dependent variable, i.e. the variable that we are trying to predict, is the “apparent” cortisol concentration, which is estimated from the concentration-signal 4 parameter logistic regression model. […] These equations are given by,
(§2) In terms of the model β1 is interpreted as the amount that the “apparent” cortisol is increase per ng/ml increase of cortisol and similarly β2 is interpreted as the amount that the “apparent” cortisol is increased per ng/ml increase of cross-reactant. Finally to estimate the percent cross action it is given by:
(§3) The antibody concentrations were 125 ug/mL in buffered solutions comprising phosphate-buffered saline (PBS) and 1× Whatman Protein Arraying Buffer. The antibody solutions were applied to the slide surface using a Scienion sciflexarryer S5 piezo printer. The average spot sizes were 150 um. The antibodies within a sub array were printed in replicates of five spots, and each slide contained twelve sub arrays arranged in two columns of six. The relative spacing of the sub arrays was nine millimeters, equivalent to the spacing of a 96-well micro titer plate.
(§4) The micro-array slides were assembled with a superstructure that creates individual wells that surround the sub array (Slide Incubation Chambers, Whatman). The slides were blocked for one hour with micro array blocking buffer (VWR) and then washed with TRIS-buffered saline with Tween-20 (TBST). Cortisol-containing samples or calibrators were diluted 1 to 20 into a buffered solution that contained the following: TBST, 0.1% SDS, 3.3 nM cortisol 3-CMO Alexa Fluor 555, and 3.3 nM cortisol 21-HS Alexa Fluor 647. One-hundred micro liters of the assay mixture was applied to an individual well on the micro-array slide, and the assay was allowed to proceed for one hour at room temperature in the dark with gentle shaking on a micro-titer plate shaker. The assay mixture was removed, and the slides were washed with TBST, water, and then dried by spinning in a centrifuge. The intensities of fluorescence associated with each spot was quantified using a micro-array reader such as an Axon 4000B or 4200AL. The spot intensities for the calibrators were used to generate a standard curve by fitting the data to a four-parameter logistic model. The concentrations of the cortisol-containing patient samples or synthetic samples were interpolated using the logistic-fit equation.
(§5) Subsequently, several cortisol antibodies were synthesized and relative cross reactivities were determined for the synthetic glucocorticoids obtained via the same described the Beckmann system (Tables 4 & 5). Cortisol antibodies should have specificity to distinguish the differences in the A ring of the steroid molecules shown below.

[2] = test system: Antibody 7 (clone XM210 from Abcam); assay: Cross reactivity on anti-cortisol antibody microarray, antibody 7; assay type: binding; settings: for Percent cross reactivity, antibody 7: determined by 2000 ng/mL sample; for % cross reactivity, antibody 7: from slopes of ([apparent cortisol] vs [cross reactant])
Excerpt: as §1, §2, §3
as §4, with “equation. […]” for “equation.”

[3] = test system: Beckmann Access (commercial cortisol immunoassay); assay: Synthetic glucocorticoid cross reactivity in Beckman Access cortisol immunoassay; assay type: binding; set-up: Access Cortisol Value: unit: ng/mL; settings: for Access Cortisol Value: Method 1: all synthetics present at 2000 ng/mL, apparent cortisol read by Beckmann Access; for Percent cross reactivity, Access: determined by 2000 ng/mL sample; for % Reactivity (Method 2): serial dilutions 1:2, 1:4, 1:8 and 1:16, linear analysis evaluation; for % Reactivity (Method 1): synthetic present at 2000 ng/mL, (cortisol value)/(concentration of analyte) x 100%
Protocol: Initial synthetic glucocorticoid antibody cross reactivity data included LC-MS/MS analysis of patient samples was followed by analysis via the Beckman immunoassay system, and relative cross reactivities were calculated for each of the synthetic glucocorticoids of interest. Cross reactivities were also calculated based on a linearity study of each of the major cross reactive synthetic glucocorticoids to ensure that the values obtained for each were viable. (Table 1).
(§6) LC-MS/MS analysis of patient samples was followed by analysis using the Beckman Access (commercial assay), and relative cross reactivities were calculated for each of the synthetic glucocorticoids of interest. Synthetic positive patient samples were then mimicked in stripped serum for cortisol, cortisone and exogenous synthetic glucocorticoids. […] The linear relationship for these systems was examined and illustrated.

antibody 13 = assay: Cross reactivity on anti-cortisol antibody microarray, antibody 13; assay type: binding; settings: for Percent cross reactivity, antibody 13: determined by 2000 ng/mL sample; for % cross reactivity, antibody 13: from slopes of ([apparent cortisol] vs [cross reactant])
Excerpt: (§7) This model is used to estimate the cross-reaction percentage. The independent variables, these are x1 and x2 in the model are the various concentrations levels, where x1 is the concentration level of cortisol and x2 is the concentration level of the cross-reactant (in this case either 6AMP or prednisolone). The dependent variable, i.e. the variable that we are trying to predict, is the “apparent” cortisol concentration, which is estimated from the concentration-signal 4 parameter logistic regression model. We fit this model using standard multiple linear regression methods to estimate β1 and β2. These equations are given by,
as §2, §3, §4, §5

antibody 17 = assay: Cross reactivity on anti-cortisol antibody microarray, antibody 17; assay type: binding; settings: for Percent cross reactivity, antibody 17: determined by 2000 ng/mL sample; for % cross reactivity, antibody 17: from slopes of ([apparent cortisol] vs [cross reactant])
Excerpt: as §7, §2, §3, §4, §5

[4] = LC-MS/MS analysis of synthetic-positive patient samples; assay type: in vivo; settings: population of positive patient samples
Excerpt: In the present method mass spectrometric methods were used to determine actual analyte levels in clinical patient populations. Some of these samples were subjected to the current immunoassay systems and the interference relationship was established. After identifying the most commonly present exogenous drugs present in the samples, this information was used toward establishing an assay, free from the limitations of the mass spec. deconvolution, that gives an accurate depiction of the analyte, such as cortisol, levels in a patient sample.
A population was drawn of positive synthetic patient samples once cross reactivities were determined for individual steroids (Table 2).
as §6

[5] = test system: Antibody 10 (clone A29220314P from BiosPacific); assay: Cross reactivity on anti-cortisol antibody microarray, antibody 10; assay type: binding; settings: for Percent cross reactivity, antibody 10: determined by 2000 ng/mL sample; for % cross reactivity, antibody 10: from slopes of ([apparent cortisol] vs [cross reactant])
Excerpt: as §1, §2, §3, §4, §5

antibody 21509 = assay: Cross reactivity on anti-cortisol antibody microarray, antibody 21509; assay type: binding; settings: from slopes of ([apparent cortisol] vs [cross reactant])
Excerpt: as §7
(§8) In terms of the model β1 is interpreted as the amount that the “apparent” cortisol is increase per ng/ml increase of cortisol and similarly β2 is interpreted as the amount that the “apparent” cortisol is increased per ng/ml increase of cross-reactant. […]
(§9) The micro-array slides were assembled with a superstructure that creates individual wells that surround the sub array (Slide Incubation Chambers, Whatman). […] The intensities of fluorescence associated with each spot was quantified using a micro-array reader such as an Axon 4000B or 4200AL. […]
(§10) Subsequently, several cortisol antibodies were synthesized and relative cross reactivities were determined for the synthetic glucocorticoids obtained via the same described the Beckmann system (Tables 4 & 5). […]

antibody ECB = assay: Cross reactivity on anti-cortisol antibody microarray, antibody ECB; assay type: binding; settings: from slopes of ([apparent cortisol] vs [cross reactant])
Excerpt: as §7, §8, §9, §10

In the case of `C[C@H]1C[C@@H]2[C@H]([C@@H](O)C[C@@]3(C)[C@H]2CC[C@]3(O)C(=O)CO)[C@@]2(C)C=CC(=O)C=C12` [SYN-1, 6-a-methyl prednisolone], the “Percent cross reactivity, antibody 9” value [1] is reported as 2%, the “% cross reactivity, antibody 9” value [1] is reported as 2% and the “Percent cross reactivity, antibody 7” value [2] is reported as 9%. The “% cross reactivity, antibody 7” value [2] was 7%, the “Access Cortisol Value” [3] was 34.4 and the “Percent cross reactivity, Access” value [3] was 2%. For the same molecule, the “% Reactivity (Method 2)” value [3] was 1.4%, the “% Reactivity (Method 1)” value [3] was 1.72% and the “Percent cross reactivity, antibody 13” value (antibody 13) was 10%. For the same molecule, the “% cross reactivity, antibody 13” value (antibody 13) was 6%, the “Percent cross reactivity, antibody 17” value (antibody 17) was 3% and the “% cross reactivity, antibody 17” value (antibody 17) was 1%. The “Range of steroid concentration in synthetic positive patient samples” value (from here on “Range of steroid concentration”) [4] was 1.7 to 130 ng/mL, the “Percent cross reactivity, antibody 10” value [5] was “high” and the “% cross reactivity, antibody 10” value [5] was 109%.

For `C[C@]12C=CC(=O)C=C1CC[C@@H]1[C@@H]2C(=O)C[C@@]2(C)[C@H]1CC[C@]2(O)C(=O)CO` [SYN-2, Prednisone], the “Percent cross reactivity, antibody 9” value [1] was 21%, the “% cross reactivity, antibody 9” value [1] was 26% and the “% cross reactivity, antibody 21509” value (antibody 21509) was <1%. For the same molecule, the “Percent cross reactivity, antibody 7” value [2] was 1%, the “% cross reactivity, antibody 7” value [2] was <1% and the “% cross reactivity, antibody ECB” value (antibody ECB) was 1%. For the same molecule, the “Access Cortisol Value” [3] was 50.8, the “Percent cross reactivity, Access” value [3] was 3% and the “% Reactivity (Method 2)” value [3] was 2.2%. The “% Reactivity (Method 1)” value [3] was 2.54%, the “Percent cross reactivity, antibody 13” value (antibody 13) was 1% and the “Percent cross reactivity, antibody 17” value (antibody 17) was 20%. For the same molecule, the “Range of steroid concentration” value [4] was 1.9 to 72 ng/mL, the “Percent cross reactivity, antibody 10” value [5] was 0% and the “% cross reactivity, antibody 10” value [5] was 1%.

With `CC1(C)O[C@@H]2C[C@H]3[C@@H]4CCC5=CC(=O)C=C[C@]5(C)[C@@]4(F)[C@@H](O)C[C@]3(C)[C@]2(C(=O)CO)O1` [SYN-3, Triamcinolone acetonide] the “Range of steroid concentration” value [4] was 0.3 to 2.3 ng/mL.

In the case of `C[C@]12C=CC(=O)C=C1CC[C@H]1[C@@H]3C[C@@H](O)[C@](O)(C(=O)CO)[C@@]3(C)C[C@H](O)[C@@]12F` [SYN-4, Triamcinolone], the “Percent cross reactivity, antibody 9” value [1] is reported as 1%, the “Percent cross reactivity, antibody 7” value [2] is reported as 0% and the “Access Cortisol Value” [3] is reported as 1.1. The “Percent cross reactivity, Access” value [3] was 0%, the “% Reactivity (Method 1)” value [3] was 0.055% and the “Percent cross reactivity, antibody 13” value (antibody 13) was 0%. The “Percent cross reactivity, antibody 17” value (antibody 17) was 0% and the “Percent cross reactivity, antibody 10” value [5] was 0%.

In the case of `C[C@]12CCC(=O)C=C1CC[C@@H]1[C@@H]2C(=O)C[C@@]2(C)[C@H]1CC[C@]2(O)C(=O)CO` [SYN-6, Cortisone], the “Percent cross reactivity, antibody 9” value [1] is reported as 13%, the “% cross reactivity, antibody 9” value [1] is reported as 15% and the “Percent cross reactivity, antibody 7” value [2] is reported as 1%. The “% cross reactivity, antibody 7” value [2] was 1%, the “Access Cortisol Value” [3] was 94 and the “Percent cross reactivity, Access” value [3] was 5%. For the same molecule, the “% Reactivity (Method 2)” value [3] was 4.5%, the “% Reactivity (Method 1)” value [3] was 4.7% and the “Percent cross reactivity, antibody 13” value (antibody 13) was 1%. For the same molecule, the “% cross reactivity, antibody 13” value (antibody 13) was 1%, the “Percent cross reactivity, antibody 17” value (antibody 17) was 11% and the “% cross reactivity, antibody 17” value (antibody 17) was 13%. For the same molecule, the “Percent cross reactivity, antibody 10” value [5] was 0% and the “% cross reactivity, antibody 10” value [5] was <1%.

With `C[C@]12C=CC(=O)C=C1CC[C@@H]1[C@@H]2[C@@H](O)C[C@@]2(C)[C@H]1CC[C@]2(O)C(=O)CO` [SYN-7, Prednisolone] the “Percent cross reactivity, antibody 9” value [1] was 15%, the “% cross reactivity, antibody 9” value [1] was 37% and the “Percent cross reactivity, antibody 7” value [2] was 5%. For the same molecule, the “% cross reactivity, antibody 7” value [2] was 5%, the “Access Cortisol Value” [3] was 420.7 and the “Percent cross reactivity, Access” value [3] was 21%. For the same molecule, the “% Reactivity (Method 2)” value [3] was 20.8%, the “% Reactivity (Method 1)” value [3] was 21.035% and the “Percent cross reactivity, antibody 13” value (antibody 13) was 4%. For the same molecule, the “% cross reactivity, antibody 13” value (antibody 13) was 5%, the “Percent cross reactivity, antibody 17” value (antibody 17) was 14% and the “% cross reactivity, antibody 17” value (antibody 17) was 35%. The “Range of steroid concentration” value [4] was 0.6 to 640 ng/mL, the “Percent cross reactivity, antibody 10” value [5] was 68% and the “% cross reactivity, antibody 10” value [5] was 133%.

With `CC(=O)[C@@]1(O)CC[C@H]2[C@@H]3C[C@H](C)C4=CC(=O)C=C[C@]4(C)[C@@]3(F)[C@@H](O)C[C@@]21C` [SYN-8, Fluorometholone] the “Percent cross reactivity, antibody 9” value [1] was 0%, the “Percent cross reactivity, antibody 7” value [2] was 0% and the “Access Cortisol Value” [3] was 0.8. The “Percent cross reactivity, Access” value [3] was 0%, the “% Reactivity (Method 1)” value [3] was 0.04% and the “Percent cross reactivity, antibody 13” value (antibody 13) was 0%. The “Percent cross reactivity, antibody 17” value (antibody 17) was 0% and the “Percent cross reactivity, antibody 10” value [5] was 6%.

With `C[C@@H]1C[C@H]2[C@@H]3CCC4=CC(=O)C=C[C@]4(C)[C@@]3(F)[C@@H](O)C[C@]2(C)[C@@]1(O)C(=O)CO` [SYN-10, Dexamethasone] the “Range of steroid concentration” value [4] was 1.0 to 14.0 ng/mL.
